In patent US20190246658A1, “METHODS OF HANDLING PAPAYA” (AGROFRESH INC., priority 2013, published 2019):

Tests used:
Papayas ‘Golden’ [1] = experiment: Example 1: pulp firmness, external (FTA, 8 mm probe); format: in vivo, papaya; conditions: 100 ppb of MCP
Protocol: (§1) Papayas ‘Golden’ were harvested in Linhares—Espírito Santo—Brazil. The harvested fruits were packed in MAP Bags and put in cardboard boxes.
(§2) The appropriate weight of papayas was placed in each bag after harvest. Bags were placed in the same cardboard boxes used to export the fruits. Papayas then were cold stored at (11° C.) at the Laboratory.
(§3) The Test Protocol that was used was as follows. 36 MAP bags were packed. Each bag held approximately 3.8 kg (8.4 lb) of papayas. One such bag was packed in each cardboard box. Total weight of papayas in MAP bags was approximately 137 kg. Approximately 91 kg of papayas were placed into cardboard boxes identical to those used for the MAP bags.
(§4) The MAP-packaged papayas were packaged as follows: Nine fruits, approximately 3.8 kg were carefully placed into microperforated bags, and the bags were sealed by twisting the open side of the bag, folding down the twisted end, and placing a rubber band around the twisted and folded end of the bag.
(§5) All papayas were kept at cold temperature (11° C.) during 27 days and after that the fruits (packed in MAP bags or not) were put in room temperature (22° C.) during 8 days.
(§6) One day after harvest, when the papayas had around 25 lbf of average firmness, each treatment set was marked, placed in a hermetical chamber at cold temperature (11° C.). All chambers were of equal size and packed the same way. Treatment was for 12 hours. In the chambers for the 3 “MCP” treatment groups, at the beginning of the treatment period, SmartFresh™ were placed in the chamber. The amount of SmartFresh™ was chosen to achieve the indicated concentration of 1-methylcyclopropene in the atmosphere of the chamber.
(§7) Evaluation for skin color and firmness was as follows. Day “zero” was the day the papayas were removed from the chamber and placed in storage.
For the Pulp Firmness evaluation two measurements where done, one for External Firmness and another for Internal Firmness. For External Firmness, the papayas had the skin removed with a peeler and the pulp firmness was measured with a Firmness Texture Analyzer (FTA) with a probe of 8 mm. For Internal Firmness, the papayas were cut transversally and a measurement close to the center of the fruit was taken with the FTA.

Papayas ‘Golden’ [2] = experiment: Example 1: papaya skin color rating; format: in vivo; conditions: for Skin color ratings: 100 ppb of MCP, scale 1 green to 5 yellow
Protocol: as §1, §2, §3, §4, §5, §6, §7
The Papaya Skin Color was rated with the following scale: 1: green; 2: approximately 25%; 3: approximately 50% colored; 4: approximately 75% colored; 5: yellow.

Papayas ‘Golden’ [3] = experiment: Example 2 (yellow stage): weight loss; format: in vivo, papaya; conditions: for Weight loss: 500 ppb of MCP
Protocol: A similar test to Example 1 but papayas are tested during their yellow stage. Papayas ‘Golden’ were harvested in Linhares—Espírito Santo—Brazil. The fruits were packed in MAP Bags and put in cardboard boxes.
The fruits were first left at room temperature during 3 days to reach yellow maturity stage.
After that the appropriate weight of papayas was placed in each bag after harvest. Bags were placed in the same cardboard boxes used to export the fruits. Papayas then were cold stored at (11° C.) at the Laboratory.
as §3, with “18” for “36”, “68” for “137”, “68” for “91”
as §4
All papayas were kept at cold temperature (11° C.) during 26 days and after that the fruits (packed in MAP bags or not) were put in room temperature (22° C.) during 8 days.
After the 3 days for maturation at room temperature, when the papayas had around 5 lbf of average firmness, each treatment set was marked, placed in a hermetical chamber at cold temperature (11° C.). All chambers were of equal size and packed the same way. Treatment was for 12 hr. In the chambers for the 2 “MCP” treatment groups, at the beginning of the treatment period, SmartFresh™ were placed in the chamber. The amount of SmartFresh™ was chosen to achieve the indicated concentration of 1-methylcyclopropene in the atmosphere of the chamber.
Weight loss was measured using the difference in weight observed in selected papayas from each treatment. These fruits were weighted before the cold storage and then the same fruits were weighted on the evaluations days.

[4] = MAP bag, 27 days at 11° C. then 0 days @ 22° C.
[5] = MAP bag, 27 days at 11° C. then 4 days @ 22° C.
[6] = MAP bag, 27 days at 11° C. then 8 days @ 22° C.
[7] = No Bag, 27 days at 11° C. then 0 days @ 22° C.
[8] = No Bag, 27 days at 11° C. then 4 days @ 22° C.
[9] = No Bag, 27 days at 11° C. then 8 days @ 22° C.

Q: `CC1=CC1` [MCP, 1-methylcyclopropene] was tested. Which “Pulp Firmness - External” value (Papayas ‘Golden’ [1]; [4]) did it give?
A: 17.1 lbf

Q: And the “Pulp Firmness - External” value (Papayas ‘Golden’ [1]; [5])?
A: 17.0 lbf

Q: And the “Pulp Firmness - External” value (Papayas ‘Golden’ [1]; [6])?
A: 6.2 lbf

Q: What about the “Pulp Firmness - External” value (Papayas ‘Golden’ [1]; [7]) of the same compound?
A: 25.0 lbf

Q: What about the “Pulp Firmness - External” value (Papayas ‘Golden’ [1]; [8]) of the same compound?
A: 23.4 lbf

Q: And the “Pulp Firmness - External” value (Papayas ‘Golden’ [1]; [9])?
A: 7.8 lbf

Q: What about the “papayas color, in words” value (Papayas ‘Golden’ [2]; 1-MCP alone (no MAP)) of the same compound?
A: did not hold the papayas color

Q: What about the “Skin color ratings” value (Papayas ‘Golden’ [2]; [4]) of the same compound?
A: 2.14

Q: What about the “Skin color ratings” value (Papayas ‘Golden’ [2]; [5]) of the same compound?
A: 2.74

Q: What about the “Skin color ratings” value (Papayas ‘Golden’ [2]; [6]) of the same compound?
A: 3.46

Q: What about the “Skin color ratings” value (Papayas ‘Golden’ [2]; [7]) of the same compound?
A: 1.70

Q: And the “Skin color ratings” value (Papayas ‘Golden’ [2]; [8])?
A: 4.28

Q: And the “Skin color ratings” value (Papayas ‘Golden’ [2]; [9])?
A: 4.44

Q: What about the “weight loss, in words” value (Papayas ‘Golden’ [3]; 1-MCP alone (no MAP)) of the same compound?
A: elevated weight loss

Q: What about the Weight loss (Papayas ‘Golden’ [3]; MAP bag, 26 days at 11° C. then 0 days @ 22° C.) of the same compound?
A: 0.68%

Q: And the Weight loss (Papayas ‘Golden’ [3]; MAP bag, 26 days at 11° C. then 4 days @ 22° C.)?
A: 1.21%

Q: And the Weight loss (Papayas ‘Golden’ [3]; MAP bag, 26 days at 11° C. then 8 days @ 22° C.)?
A: 2.09%

Q: And the Weight loss (Papayas ‘Golden’ [3]; No Bag, 26 days at 11° C. then 0 days @ 22° C.)?
A: 5.42%

Q: What about the Weight loss (Papayas ‘Golden’ [3]; No Bag, 26 days at 11° C. then 4 days @ 22° C.) of the same compound?
A: 9.07%

Q: And the Weight loss (Papayas ‘Golden’ [3]; No Bag, 26 days at 11° C. then 8 days @ 22° C.)?
A: 16.53%
